Activity calls are given as the source filed them. No cut-off for these calls is given here.
Legend:
[1] = Antifungal activity against […] musarum at 1 mg/mL by disc diffusion method; settings: Gloeosporium
Glomerella cingulata = assay: Antifungal activity against Glomerella cingulata at 1 mg/mL by disc diffusion method
Phytophthora litchii = assay: Antifungal activity against Peronophythora litchii at 1 mg/mL by disc diffusion method
[2] = Antifungal activity against Glorosprium musarum at 1 ug/mL by disc diffusion method; assay type: functional; settings: Gloeosporium

| SMILES | Activity [1] | Activity (Glomerella cingulata) | Activity (Phytophthora litchii) | inhibition zone (IZ) [2] [mm] |
| --- | --- | --- | --- | --- |
| CC1(C)O[C@](C(=O)O)([C@H]2CC[C@]3(C)[C@@H]2CC[C@@H]2[C@@]4(C)CC[C@H](O[C@@H]5O[C@H](CO)[C@@H](O)[C@H](O)[C@H]5O[C@@H]5O[C@H](CO)[C@@H](O)[C@H](O)[C@H]5O)[C@](C)(CO)[C@@H]4CC[C@]23C)C[C@H](O)[C@@H]1O | inactive | inactive | inactive |  |
| C[C@]12CC[C@H](O[C@@H]3O[C@H](CO)[C@@H](O)[C@H](O)[C@H]3O)[C@](C)(CO)[C@@H]1CC[C@]1(C)[C@@H]2CC[C@@H]2[C@@H]([C@]3(C(=O)O)C[C@H](O)[C@H](O)[C@](C)(CO)O3)CC[C@]21C | inactive | inactive | inactive |  |
| CC1(C)O[C@](C(=O)O)([C@H]2CC[C@]3(C)[C@@H]2CC[C@@H]2[C@@]4(C)CC[C@H](O[C@@H]5O[C@H](CO)[C@@H](O)[C@H](O)[C@H]5O[C@@H]5O[C@H](CO)[C@@H](O)[C@H](O)[C@H]5O)C(C)(C)[C@@H]4CC[C@]23C)C[C@H](O)[C@@H]1O [GENTIRIGEOSIDE E] | inactive |  | inactive |  |
| CC1(C)O[C@](C(=O)O)([C@H]2CC[C@]3(C)[C@@H]2CC[C@@H]2[C@@]4(C)CC[C@H](O[C@@H]5O[C@H](CO)[C@@H](O)[C@H](O)[C@H]5O)[C@](C)(CO[C@@H]5O[C@H](CO)[C@@H](O)[C@H](O)[C@H]5O)[C@@H]4CC[C@]23C)C[C@H](O)[C@@H]1O [GENTIRIGEOSIDE C] | inactive |  | inactive |  |
| CC1(C)O[C@](C(=O)O)([C@H]2CC[C@]3(C)[C@@H]2CC[C@@H]2[C@@]4(C)CC[C@H](O)[C@](C)(CO)[C@@H]4CC[C@]23C)C[C@H](O)[C@@H]1O | inactive | inactive | inactive |  |
| CC1(C)O[C@](C(=O)O)([C@H]2CC[C@]3(C)[C@@H]2CC[C@@H]2[C@@]4(C)CC[C@H](O[C@@H]5O[C@H](CO)[C@@H](O)[C@H](O)[C@H]5O)[C@](C)(CO)[C@@H]4CC[C@]23C)C[C@H](O)[C@@H]1O [GENTIRIGEOSIDE A] | inactive |  | inactive |  |
| COC(=O)Nc1nc2ccccc2[nH]1 [CARBENDAZIM] |  |  |  | 4 |

— ChEMBL document CHEMBL1147121, “Dammarane triterpenoids from the roots of Gentiana rigescens” (2007)
